From US10165775B2, “Pesticidal compositions and processes related thereto” (Dow AgroSciences LLC, priority 2011, dated 2019) come the findings set out here.

Data set [1] has as its system Green Peach Aphid (GPA) (Myrzus persicae) (MYZUPE). In words: Bioassay on green peach aphid (GPA), foliar spray on cabbage seedlings. The data set is classed as in vivo. The conditions noted are these: Myzus persicae, 72 h, 200 ppm foliar spray, graded after three days, Abbott corrected % control, read-out: MYZUPE % Ctrl @ 200 ppm. Here is the method: Certain molecules disclosed in this document were tested against GPA using procedures described in the following example. In the reporting of the results, “Table 3: GPA (MYZUPE) and sweetpotato whitefly-crawler (BEMITA) Rating Table” was used (See Table Section).
Cabbage seedlings grown in 3-inch pots, with 2-3 small (3-5 cm) true leaves, were used as test substrate. The seedlings were infested with 20-50 GPA (wingless adult and nymph stages) one day prior to chemical application. Four pots with individual seedlings were used for each treatment. Test compounds (2 mg) were dissolved in 2 mL of acetone/methanol (1:1) solvent, forming stock solutions of 1000 ppm test compound. The stock solutions were diluted 5× with 0.025% Tween 20 in H2O to obtain the solution at 200 ppm test compound. A hand-held aspirator-type sprayer was used for spraying a solution to both sides of […] leaves until runoff. Reference plants (solvent check) were sprayed with the diluent only containing 20% by volume of acetone/methanol (1:1) solvent. Treated plants were held in a holding room for three days at approximately 25° C. and ambient relative humidity (RH) prior to grading. Evaluation was conducted by counting the number of live aphids per plant under a microscope. Percent Control was measured by using Abbott's correction formula (W. S. Abbott. “A Method of Computing the Effectiveness of an Insecticide” J. Econ. Entomol. 18 (1925), pp. 265-267) as follows. Corrected % Control=100*(X−Y)/X • where • X=No. of live aphids on solvent check plants and • Y=No. of live aphids on treated plants
Biological Data for GPA (MYZUPE) and sweetpotato whitefly-crawler (BEMITA)” (See Table Section).

Data set [2] concerns Sweetpotato whitefly-crawler (Bemisia tabaci) (BEMITA). The experiment in a line: Insecticidal test for sweetpotato whitefly-crawler in foliar spray assay on cotton plants. The note with it: 200 ppm foliar spray, graded after 8-9 days, Abbott corrected % control, read-out: BEMITA % Ctrl @ 200 ppm. The data set is classed as in vivo. On the procedure: Cotton plants grown in 3-inch pots, with 1 small (3-5 cm) true leaf, were used as test substrate. The plants were placed in a room with whitefly adults. Adults were allowed to deposit eggs for 2-3 days. After a 2-3 day egg-laying period, plants were taken from the adult whitefly room. Adults were blown off leaves using a hand-held Devilbiss sprayer (23 psi). Plants with egg infestation (100-300 eggs per plant) were placed in a holding room for 5-6 days at 82° F. and 50% RH for egg hatch and crawler stage to develop. Four cotton plants were used for each treatment. Compounds (2 mg) were dissolved in 1 mL of acetone solvent, forming stock solutions of 2000 ppm. The stock solutions were diluted 10× with 0.025% Tween 20 in H2O to obtain a test solution at 200 ppm. A hand-held Devilbiss sprayer was used for spraying a solution to both sides of cotton leaf until runoff. Reference plants (solvent check) were sprayed with the diluent only. Treated plants were held in a holding room for 8-9 days at approximately 82° F. and 50% RH prior to grading. Evaluation was conducted by counting the number of live nymphs per plant under a microscope. Insecticidal activity was measured by using Abbott's correction formula and presented in “Table 4. Biological Data for GPA (MYZUPE) and sweetpotato whitefly-crawler (BEMITA)” (see column “BEMITA”): Corrected % Control=100*(X−Y)/X • where X=No. of live nymphs on solvent check plants • Y=No. of live nymphs on treated plants Pesticidally Acceptable Acid Addition Salts, Salt Derivatives, Solvates, Ester Derivatives, Polymorphs, Isotopes and Radionuclides

For the compound `C#CCN(C(=O)CC(SC)C1CC1)c1cn(-c2cccnc2)nc1Cl` (stereo not drawn) [Compound 619], the melting point (usually the temperature, or range, at which the solid turns liquid) was 109 to 112 °C. Besides, in data set [1], the pest or weed control at 200 ppm lay in the range of 80 to 100%. In addition, in data set [2], the pest or weed control at 200 ppm is 80 to 100%.
